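Compound exposure: 48 hours, 5 concentrations, 96-well plates. GI50: concentration for 50% inhibition of growth.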 Activity calls are given as the source filed them. Cut-off read from the data, not from the text of the source: active = GI50 up to about 1.1 µM and inactive = higher.
Assays:
Test in all cases: growth of human tumour cells (NCI), 48 h
EKVX = system: EKVX
HCT-15 = system: HCT-15
HOP-18 = system: HOP-18
K562 = system: K562
MOLT-4 = system: MOLT-4
Malme-3M = system: Malme-3M
NCI-H226 = system: NCI-H226
NCI-H522 = system: NCI-H522
OVCAR-8 = system: OVCAR-8
RPMI-8226 = system: RPMI-8226
RXF 393 = system: RXF 393
SF-295 = system: SF-295
SK-MEL-5 = system: SK-MEL-5
SNB-19 = system: SNB-19
SNB-75 = system: SNB-75
U-251 = system: U-251
HOP-62 = system: HOP-62
SR = system: SR

Structure (SMILES) | GI50 (EKVX) | GI50 (HCT-15) | GI50 (HOP-18) | GI50 (K562) | GI50 (MOLT-4) | GI50 (Malme-3M) | GI50 (NCI-H226) | GI50 (NCI-H522) | GI50 (OVCAR-8) | GI50 (RPMI-8226) | GI50 (RXF 393) | GI50 (SF-295) | GI50 (SK-MEL-5) | GI50 (SNB-19) | GI50 (SNB-75) | GI50 (U-251) | GI50 (HOP-62) | GI50 (SR)
O=C(O)CCNS(=O)(=O)c1ccc2ccccc2c1 | > 100 µM (inactive) | > 100 µM | > 100 µM (inactive) | > 100 µM (inactive) | > 100 µM (inactive) | > 100 µM (inactive) | > 100 µM (inactive) | > 100 µM (inactive) | > 100 µM (inactive) | > 100 µM (inactive) | > 10 µM (inactive) | > 100 µM (inactive) | > 100 µM (inactive) | > 100 µM (inactive) | > 100 µM (inactive) | > 100 µM (inactive) | – | –
O=C(OCCOCBr)c1ccccc1 | > 100 µM (inactive) | > 100 µM | > 100 µM (inactive) | > 100 µM (inactive) | > 100 µM (inactive) | > 100 µM (inactive) | > 100 µM (inactive) | > 100 µM (inactive) | > 100 µM (inactive) | > 100 µM (inactive) | – | > 100 µM (inactive) | > 100 µM (inactive) | > 100 µM (inactive) | > 100 µM (inactive) | > 100 µM (inactive) | > 100 µM (inactive) | > 100 µM (inactive)
COc1ccc2c(c1OCC(=O)O)C(=O)C(CCC(=O)O)CC2 (stereo unspecified) | > 100 µM (inactive) | > 100 µM | > 100 µM (inactive) | – | > 100 µM (inactive) | – | – | – | > 100 µM (inactive) | > 100 µM (inactive) | > 100 µM (inactive) | > 100 µM (inactive) | > 100 µM (inactive) | > 100 µM (inactive) | > 100 µM (inactive) | > 100 µM (inactive) | > 100 µM (inactive) | –
CCC(O)C1Cc2c(C)cc3c(c2O1)C(=O)c1ccccc1C3=O (stereo unspecified) | 62.4 µM (inactive) | 19.6 µM | 17.2 µM (inactive) | 29.8 µM (inactive) | 27.4 µM (inactive) | 34.6 µM (inactive) | 46.8 µM (inactive) | 21.1 µM (inactive) | 32.4 µM (inactive) | 27.9 µM (inactive) | – | 29.6 µM (inactive) | 44.7 µM (inactive) | 36.3 µM (inactive) | 31.8 µM (inactive) | 26.2 µM (inactive) | 35.9 µM (inactive) | 33.5 µM (inactive)
Cc1nn(C)c(=S)n(C)c1=O | 4.83 µM (inactive) | 3.76 µM | 0.43 µM (active) | 0.343 µM (active) | 1.29 µM (inactive) | 2.89 µM (inactive) | 7.53 µM (inactive) | 0.275 µM (active) | 0.571 µM (active) | 0.556 µM (active) | 0.498 µM (active) | 0.571 µM (active) | – | 0.802 µM (active) | 0.329 µM (active) | 1.75 µM (inactive) | 1.81 µM (inactive) | –
O=C(O)CCC1(Br)CCCCC(Br)C1=O (stereo unspecified) | > 100 µM (inactive) | > 100 µM | 32.8 µM (inactive) | > 100 µM (inactive) | > 100 µM (inactive) | > 100 µM (inactive) | > 100 µM (inactive) | > 100 µM (inactive) | > 100 µM (inactive) | > 100 µM (inactive) | 85.9 µM (inactive) | > 100 µM (inactive) | > 100 µM (inactive) | > 100 µM (inactive) | 35.9 µM (inactive) | > 100 µM (inactive) | > 100 µM (inactive) | –

— ChEMBL document CHEMBL1201862, “PubChem BioAssay data set” (2004)
